The values that follow are results of earlier work, collected in patent US20240207240A1, “Method for Improving or Treating Cognitive Dysfunction Complicating HIV-associated Cryptococcal Meningitis with Lenalidomide” (The First Affiliated Hospital Zhejiang University School of …, priority 2022, published 2024).

Structures are written as SMILES.

The conditions of data set [1]: cited from earlier work.
The conditions of data set [2]: in vivo; cited from earlier work.

For the compound `Nc1cccc2c1C(=O)N(C1CCC(=O)NC1=O)C2=O` (stereo not drawn) [pomalidomide], in data set [1], the bioavailability result is recorded as “high”.
`O=C1CCC(N2C(=O)c3ccccc3C2=O)C(=O)N1` (stereo not drawn) [thalidomide]: the bioavailability entry in data set [1] is “high”. For the same compound, the side effects result in data set [2] was “bone marrow suppression, cardiotoxicity, vascular thrombosis, and neurotoxicity”.
